system: mdx mice; assay: not given; conditions: Non-patent Document 7; cited from earlier work

Structure (SMILES)	muscle strength	myonecrosis
c1ccc(C(OC2CCN(CCCc3nn[nH]n3)CC2)c2ccccc2)cc1 [HQL-79]	increases muscle strength	suppresses myonecrosis

target: T1, human H-PGDS (Homo sapiens (Human), UniProt O60760); assay: Human H-PGDS binding inhibitory activity (AlphaLISA antagonistic assay); conditions: His-tagged human H-PGDS 0.3 nmol/L, biotinylated H-PGDS inhibitor 45 nmol/L
Method: Experimental Example 1: Measurement of Human H-PGDS Binding Inhibitory Activity
The H-PGDS binding inhibitory activity of the test compound was measured by AlphaLISA antagonistic assay. A specific protocol is as follows.
In an AlphaPlate-384 Shallow well plate (Cat. 6008350, PerkinElmer) were added and mixed 240 nL/well of DMSO solution as a compound solution or a solvent control, 3 µL/well (final concentration: 45 nmol/L) of biotinylated H-PGDS inhibitor (see below for the production method) diluted with […] DMSO-containing Assay Buffer (50 mM HEPES-NaOH (pH 7.5), 2 mM GSH, 150 mM NaCl, 2 mM MgCl2, 0.005% Surfactant P20), and 2 μL/well (final concentration: 0.3 nmol/L) of His-tagged human H-PGDS (Cat. ATGP1557, ATgen) diluted with Assay Buffer. As a blank, 2 μL/well of Assay Buffer was added instead of His-tagged human H-PGDS. This plate was allowed to stand at room temperature for 60 min, and Nickel Chelate AlphaLISA Acceptor Beads (Cat. AL108C, Perkin Elmer) at 5 μL/well (final concentration: 20 μg/mL) were added and mixed. After allowing to stand at room temperature for 30 min under shading, AlphaScreen Streptavidin donor beads (Cat. 6760002S, Perkin Elmer) were added at 5 μL/well (final concentration: 30 μg/mL) and mixed. After allowing to stand at room temperature for 60 min under shading, AlphaLISA signals (excitation wavelength: 680 nm, measurement wavelength: 615 nm) were measured using Enspire (Perkin Elmer).
The H-PGDS binding inhibitory activity (inhibitory rate) of each test compound was calculated as follows, and the IC50 value was calculated from the inhibitory rate at two concentrations sandwiching 50%.

T1 sequence (O60760 whole entry): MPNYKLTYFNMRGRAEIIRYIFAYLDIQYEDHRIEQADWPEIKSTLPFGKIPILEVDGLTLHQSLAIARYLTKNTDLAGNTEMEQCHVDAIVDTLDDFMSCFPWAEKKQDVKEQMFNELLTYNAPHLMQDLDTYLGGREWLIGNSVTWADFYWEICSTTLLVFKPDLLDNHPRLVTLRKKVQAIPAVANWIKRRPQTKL

Structure (SMILES)	IC50
Cc1nn(-c2ccc(C(=O)N[C@H]3CC[C@H](C(C)(C)O)CC3)cn2)c2ccccc12 [Example 15]	12 nM
Cc1nn(-c2ncc(C(=O)NC34CC(C(C)(C)O)(C3)C4)cn2)c2cc(F)ccc12 [Example 7, 2-(6-fluoro-3-methyl-1H-indazol-1-yl)-N-(3-(2-hydroxypropan-2-yl)bicyclo[1.1.1]pentan-1-yl)pyrimidine-5-carboxamide]	11 nM
CC(C)(O)[C@H]1CC[C@H](NC(=O)c2ccc(-n3nc(Cl)c4ccccc43)nc2)CC1 [Example 17]	27 nM
Cc1nn(-c2ccc(C(=O)N[C@H]3CC[C@H](C(C)(C)O)CC3)cn2)c2cc(F)ccc12 [Example 40]	7 nM
Cc1nn(-c2ncc(C(=O)N[C@H]3CC[C@H](OCC(C)(C)O)CC3)cn2)c2ccccc12 [Example 4, N-(trans-4-(2-hydroxy-2-methylpropoxy)cyclohexyl)-2-(3-methyl-1H-indazol-1-yl)pyrimidine-5-carboxamide]	5 nM
Cc1nn(-c2ccc(C(=O)NC3CCCCC3)cc2)c2ccccc12 [Example 11]	171 nM
CC(C)(O)[C@H]1CC[C@H](NC(=O)c2cnc(-n3nc(C(F)F)c4ccncc43)nc2)CC1 [Example 9, 2-(3-(difluoromethyl)-1H-pyrazolo[3,4-c]pyridin-1-yl)-N-(trans-4-(2-hydroxypropan-2-yl)cyclohexyl)pyrimidine-5-carboxamide]	13 nM
Cc1nn(-c2ncc(C(=O)N[C@H]3CC[C@H](C(C)(C)O)CC3)cn2)c2cc(F)ccc12 [Example 1, 2-(6-fluoro-3-methyl-1H-indazol-1-yl)-N-(trans-4-(2-hydroxypropan-2-yl)cyclohexyl)pyrimidine-5-carboxamide]	3 nM
Cc1nn(-c2ccc(C(=O)N[C@H]3CC[C@H](O)CC3)cn2)c2c(F)cccc12 [Example 41]	374 nM
CS(=O)(=O)CCCO[C@H]1CC[C@H](NC(=O)c2cnc(-n3nc(C(F)F)c4ccccc43)nc2)CC1 [Example 6, 2-(3-(difluoromethyl)-1H-indazol-1-yl)-N-(trans-4-(3-(methylsulfonyl)propoxy)cyclohexyl)pyrimidine-5-carboxamide]	3 nM
Cc1nn(-c2ncc(C(=O)N[C@H]3CC[C@H](O)CC3)cn2)c2ccccc12 [Example 18]	45 nM
CC(C)(O)[C@H]1CC[C@H](NC(=O)c2cnc(-n3nc(Cl)c4ccccc43)nc2)CC1 [Example 24]	3 nM
Cc1nn(-c2ccc(C(=O)N[C@H]3CC[C@H](O)CC3)cn2)c2cc(F)ccc12 [Example 39]	71 nM
Cc1nn(-c2ncc(C(=O)N[C@H]3CC[C@H](CC(C)(C)O)CC3)cn2)c2cnccc12 [Example 3, N-(Trans-4-(2-hydroxy-2-methylpropyl)cyclohexyl)-2-(3-methyl-1H-pyrazolo[3,4-c]pyridin-1-yl)pyrimidine-5-carboxamide]	21 nM
COc1nn(-c2ncc(C(=O)N[C@H]3CC[C@H](O)CC3)cn2)c2ccccc12 [Example 27]	225 nM

More lines, now with the values ahead:

IC50	Structure (SMILES)
74 nM	Cc1nn(-c2ccc(C(=O)N[C@H]3CC[C@H](C(C)(C)O)CC3)cn2)c2cccc(F)c12 [Example 50]
200 nM	Cc1nn(-c2ncc(C(=O)N[C@H]3CC[C@H](O)CC3)cn2)c2cccc(F)c12 [Example 42]
17 nM	Cc1nn(-c2ccc(C(=O)N[C@H]3CC[C@H](OC4CCS(=O)(=O)CC4)CC3)cn2)c2cc(F)ccc12 [Example 80]
14 nM	CC(C)(O)C(=O)N1CCC(NC(=O)c2cnc(-n3nc(C(F)F)c4ccc(F)cc43)nc2)CC1 [Example 254]
14 nM	Cc1nn(-c2ncc(C(=O)N[C@H]3CC[C@@](C)(O)CC3)cn2)c2cc(F)ccc12 [Example 204]
10 nM	CC(C)(O)[C@H]1CC[C@H](NC(=O)c2cnc(-n3nc(C(F)(F)F)c4ccccc43)nc2)CC1 [Example 46]
144 nM	Cc1nn(-c2ncc(C(=O)N[C@H]3CC[C@H](C(C)(C)O)CC3)cn2)c2c(C#N)cccc12 [Example 95]
41 nM	Cc1nn(-c2ncc(C(=O)N[C@H]3CC[C@H](O)CC3)cc2F)c2ccccc12 [Example 54]
7 nM	CC(C)(O)C12CC(NC(=O)c3cnc(-n4nc(C(F)F)c5ccccc54)nc3)(C1)C2 [Example 255]
14 nM	Cc1nc([C@H]2CC[C@H](NC(=O)c3cnc(-n4nc(C)c5ccc(F)cc54)nc3)CC2)no1 [Example 150]

target: T1, human H-PGDS; assay: Human H-PGDS inhibitory activity (enzyme reaction with PGH2, PGD2 ELISA); format: biochemical; conditions: human recombinant H-PGDS 1.6 μg/mL, PGH2 50 μmol/L
Method: Using the human H-PGDS expression plasmid DNA (pET28b/hH-PGDS) as a template, PCR (Polymerase Chain Reaction) was performed to amplify a DNA fragment containing human H-PGDS with a NotI recognition cleavage sequence immediately before the translation initiation codon and a BamHI recognition cleavage sequence immediately below the translation end codon. The purified DNA fragment was fused to pET15b (manufactured by Merck KGaA, model number 69661) digested with NotI and BamHI, by using In-Fusion HD Cloning Kit (manufactured by Takara Bio Inc., model number 639649). […] The base sequence of human H-PGDS cloned into the vector was determined by the Dye Terminator method using BigDye Terminator v3.1 Cycle Sequencing Kit (manufactured by Applied Biosystems, model number 4337456). The determined sequence was identical to the sequence of the protein translation region of human H-PGDS (Accession number su NM_014485.2) registered in the NCBI Reference Database. […]
The protein concentration of the human H-PGDS purified fraction was measured with Pierce 660 nm Protein Assay Reagent (manufactured by Thermo Fisher Scientific Inc., model number 22660). […] Human H-PGDS was detected by Western blotting using a rabbit anti-H-PGDS polyclonal antibody (manufactured by LifeSpan BioSciences, Inc, model number LS-B6886). […]

Structure (SMILES)	IC50
C[C@H](CC(=O)O)C12CCC(NC(=O)N3CCC(c4ncc(F)c5[nH]cc(F)c45)CC3)(CC1)CC2 (single isomer, unassigned) [enantiomer B]	6 nM
C[C@@H](CC(=O)O)C12CCC(NC(=O)N3CCC(c4ncc(F)c5[nH]cc(F)c45)CC3)(CC1)CC2 (single isomer, unassigned) [enantiomer A]	5 nM
